Results from patent US6800653B2, “Epothilone derivatives” (priority 2001, dated 2004).
pEC50, pIC50: −log10 of the molar value. Like-named read-outs stand apart in the source and are kept apart here.

How the values were obtained:
calf brain tubulin = experiment: In vitro tubulin polymerization; type: biochemical; settings: interpolated concentration inducing an initial slope of 0.01 OD/minute; 1.0 mg/ml microtubule protein, 37°; read-out: Tubulin assay EC0.01
Experimental: In vitro Tubulin Polymerization
Twice cycled (2×) calf brain tubulin was prepared following the procedure of Williams and Lee (see Williams, R. C., Jr., and Lee, J. C. Preparation of tubulin from brain. Methods in Enzymology 85, Pt. D: 376-385, 1982) and stored in liquid nitrogen before use. Quantification of tubulin polymerization potency is accomplished following a modified procedure of Swindell, et al., (see Swindell, C. S., Krauss, N. E., Horwitz, S. B., and Ringel, L. Biologically active taxol analogues with deleted A-ring side chain substituents and variable C-2′ configurations. J. Med. Chem. 34: 1176-1184, 1991). These modifications, in part, result in the expression of tubulin polymerization potency as an effective concentration for any given compound. For this method, different concentrations of compound in polymerization buffer (0.1M MES, 1 mM EGTA, 0.5 mM MgCl2, pH 6.6) are added to tubulin in polymerization buffer at 37° in microcuvette wells of a Beckman (Beckman Instruments) Model DU 7400 UV spectrophotometer. A final microtubule protein concentration of 1.0 mg/ml and compound concentration of generally 2.5, 5.0, and 10 μM are used. Initial slopes of OD change measured every 10 seconds were calculated by the program accompanying the instrument after initial and final times of the linear region encompassing at least 3 time points were manually defined. Under these conditions linear variances were generally <10^−6, slopes ranged from 0.03 to 0.002 absorbance unit/minute, and maximum absorbance was 0.15 absorbance units. Effective concentration (EC0.01) is defined as the interpolated concentration capable of inducing an initial slope of 0.01 OD/minute rate and is calculated using the formula: EC0.01=concentration/slope. EC0.01 values are expressed as the mean with standard deviation obtained from 3 different concentrations. EC0.01 values for the compounds in this invention fall in the range 0.01-1000 μM.

[1] = system: HCT-116 human colon carcinoma cells; experiment: Cytotoxicity (in vitro) by MTS assay; type: cell-based; settings: read-out: HTC-116 assay IC50
Experimental: Cytoxicity was assessed in HCT-116 human colon carcinoma cells by MTS (3-(4,5-dimethylthiazol-2-yl)-5-(3-carboxymethoxyphenyl)-2-(4-sulphenyl)-2H-tetrazolium, inner salt) assay as reported in T. L. Riss, et. al., “Comparison of MTT, XTT, and a novel tetrazolium compound MTS for in vitro proliferation and chemosensitivity assays.,” Mol. Biol. Cell 3 (Suppl.): 184a, 1992. Cells were plated at 4,000 cell/well in 96 well microtiter plates and 24 hours later drugs were added and serial diluted. The cells were incubated at 37° form 72 hours at which time the tetrazolium dye, MTS at 333 μg/ml (final concentration), in combination with the electron coupling agent phenazine methosulfate at 25 μM (final concentration) was added. A dehydrogenase enzyme in live cells reduces the MTS to a form that absorbs light at […] which can be quantitated spectrophotometrically. The greater the absorbance the greater the number of live cells. The results are expressed as an IC50, which is the drug concentration required to inhibit cell proliferation (i.e. absorbance at 450 nm) to 50% of that of untreated control cells.

[2] = HCT-116, 72 hours incubation, MTS

Structure (SMILES)	pEC50 (calf brain tubulin)	pIC50 ([1]; HCT-116, 72 h)	pIC50 [1, 2]
C/C(=C\c1csc(C)n1)[C@@H]1C[C@@H]2NC2CCCC(C)[C@H](O)[C@@H](C)C(=O)C(C)(C)[C@@H](O)CC(=O)O1 (relative stereo) [Example 1, [1S-[1R*,3R*(E),7R*,10S*,11R*,12R*,16S*]]-7,11-Dihydroxy-8,8,10,12-tetramethyl-3-[1-methyl-2-(2-methyl-4-thiazolyl)ethenyl]-4-oxa-17-azabicyclo[14.1.0]heptadecane-5,9-dione.]	4.85	8.57	–
C/C(=C\c1csc(C)n1)[C@@H]1C[C@H]2C(CCCC(C)[C@H](O)[C@@H](C)C(=O)C(C)(C)[C@@H](O)CC(=O)O1)N2C(=O)CN(C)C (relative stereo) [Example 4, [1S-[1R*,3R*(E),7R*,10S*,11R*,12R*,16S*]]-17-[Dimethylamino)acetyl]-7,11-dihydroxy-8,8,10,12-tetramethyl-3-[1-methyl-2(2-methyl-4-thiazolyl)ethenyl]-4-oxa-17-azabicyclo[14.1.0]heptadecane-5,9-dione.]	< 3.00	–	–
C/C(=C\c1csc(C)n1)C1CC2[C@@H](CCC[C@H](C)[C@H](O)[C@@H](C)C(=O)C(C)(C)[C@@H](O)CC(=O)O1)N2C(=O)CC(C)C (relative stereo) [Example 5, [1S-[1R*,3R*(E),7R*,10S*,11R*,12R*,16S*]]-7,11-Dihydroxy-8,8,10,12-tetramethyl-3-[1-methyl-2-(2-methyl-4-thiazolyl)ethenyl]-17-(3-methyl-1-oxobutyl)-4-oxa-17-azabicyclo[14.1.0]heptadecane-5,9-dione.]	5.46	–	7.39
C/C(=C\c1csc(C)n1)C1CC2[C@@H](CCC[C@H](C)[C@H](O)[C@@H](C)C(=O)C(C)(C)[C@@H](O)CC(=O)O1)[N@@]2S(C)(=O)=O (relative stereo) [Example 6, [1S-[1R*,3R*(E), 7R*,10S,11R*,12R*,16S*]]-17-N-Methylsulfonyl-7,11-dihydroxy-8,8,10,12-tetramethyl-3-[1-methyl-2-(2-methyl-4-thiazolyl)ethenyl]-4-oxa-17-azabicyclo[14.1.0]heptadecane-5,9-dione.]	4.85	–	8.68
CCNC(=O)N1C2CC(/C(C)=C/c3csc(C)n3)OC(=O)C[C@H](O)C(C)(C)C(=O)[C@H](C)[C@@H](O)[C@@H](C)CCC[C@H]21 (relative stereo) [Example 7, 1S-[1R*,3R*(E),7R*,10S,11R*,12R*,16S*]]-N-Ethyl-7,11-dihydroxy-8,8,10,12-tetramethyl-3-[1-methyl-2-(2-methyl-4-thiazolyl)ethenyl]-4-oxa-17-azabicyclo[14.1.0]heptadecane-5,9-dione-17-carboxamide.]	< 3.00	–	–
C/C(=C\c1csc(C)n1)C1CC2[C@@H](CCC[C@H](C)[C@H](O)[C@@H](C)C(=O)C(C)(C)[C@@H](O)CC(=O)O1)[N@@]2C (relative stereo) [Example 8, [1S-[1R*,3R*(E),7R*,10S*,11R*,12R*,16S*]]-7,11-Dihydroxy-8,8,10,12,17-pentamethyl-3-[1-methyl-2-(2-methyl-4-thiazolyl)ethenyl]-4-oxa-17-azabicyclo[14.1.0]heptadecane-5,9-dione]	5.59	9.89	–
C/C(=C\c1csc(C)n1)[C@@H]1C[C@H]2C(CCCC(C)[C@H](O)[C@@H](C)C(=O)C(C)(C)[C@@H](O)CC(=O)O1)[N@@]2Cc1ccccc1 (relative stereo) [Example 15, [1S-[1R*,3R*(E),7R*,10S,11R*,12R*,16S*]]-17-Benzyl-7,11-dihydroxy-8,8,10,12-tetramethyl-3-[1-methyl-2-(2-methyl-4-thiazolyl)ethenyl]-4-oxa-17-azabicyclo[14.1.0]heptadecane-5,9-dione.]	4.46	7.64	–
C/C(=C\c1csc(C)n1)[C@@H]1C[C@H]2C(CCCC(C)[C@H](O)[C@@H](C)C(=O)C(C)(C)[C@@H](O)CC(=O)O1)[N@]2S(N)(=O)=O (relative stereo) [Example 16, [1S-[1R*,3R*(E),7R*,10S,11R*,12R*,16S*]]-17-Sulfonylurea-7,11-dihydroxy-8,8,10,12-tetramethyl-3-[1-methyl-2-(2-methyl-4-thiazolyl)ethenyl]-4-oxa-17-azabicyclo[14.1.0]heptadecane-5,9-dione.]	4.55	–	7.44
CNS(=O)(=O)[N@@]1C2CCCC(C)[C@H](O)[C@@H](C)C(=O)C(C)(C)[C@@H](O)CC(=O)O[C@H](/C(C)=C/c3csc(C)n3)C[C@@H]21 (relative stereo) [Example 17]	5.64	–	8.11
C/C(=C\c1csc(C)n1)C1CC2[C@@H](CCC[C@H](C)[C@H](O)[C@@H](C)C(=O)C(C)(C)[C@@H](O)CC(=O)O1)[N@@]2S(=O)(=O)N(C)C (relative stereo) [Example 18, [1S-[1R*,3R*(E),7R*,10S*,11R*,12R*,16S*]]-7,11-Dihydroxy-N,N,8,8,10,12-hexamethyl-3-[1-methyl-2-(2-methyl-4-thiazolyl)ethenyl]-5,9-dioxo-4-oxa-17-azabicyclo[14.1.0]heptadecane-17-sulfonamide.]	6.00	–	9.70
C/C(=C\c1csc(C)n1)C1CC2[C@@H](CCC[C@H](C)[C@H](O)[C@@H](C)C(=O)C(C)(C)[C@@H](O)CC(=O)O1)[N@@]2S(=O)(=O)N1CCOCC1 (relative stereo) [Example 19, [1S-[1R*,3R*(E),7R*,10S,11R*,12R*,16S*]]-17-Morpholinosulfonyl-7,11-dihydroxy-8,8,10,12-tetramethyl-3-[1-methyl-2-(2-methyl-4-thiazolyl)ethenyl]-4-oxa-17-azabicyclo[14.1.0]heptadecane-5,9-dione.]	3.34	–	6.80
C/C(=C\c1csc(C)n1)C1CC2[C@@H](CCC[C@H](C)[C@H](O)[C@@H](C)C(=O)C(C)(C)[C@@H](O)CC(=O)O1)N2C(=O)Oc1ccccc1 (relative stereo) [Example 20, [1S-[1R*,3R*(E),7R*,10S,11R*,12R*,16S*]]-7,11-dihydroxy-8,8,10,12-tetramethyl-3-[1-methyl-2-(2-methyl-4-thiazolyl)ethenyl]-4-oxa-17-azabicyclo[14.1.0]heptadecane-5,9-dione-17-carboxylic acid phenyl ester.]	5.96	–	8.74
CC(=O)N1C2CC(/C(C)=C/c3csc(C)n3)OC(=O)C[C@H](O)C(C)(C)C(=O)[C@H](C)[C@@H](O)[C@@H](C)CCC[C@H]21 (relative stereo) [Example 21, [1S-[1R*,3R*(E),7R*,10S,11R*,12R*,16S*]]-17-Acetyl-7,11-dihydroxy-8,8,10,12-tetramethyl-3-[1-methyl-2-(2-methyl-4-thiazolyl)ethenyl]-4-oxa-17-azabicyclo[14.1.0]heptadecane-5,9-dione.]	5.92	–	9.05
CC(=Cc1csc(C)n1)C1CC2OC2CCCC(C)C(O)C(C)C(=O)C(C)(C)C(O)CC(=O)O1 (stereo not shown) [Epothilone A, reference compound]	–	–	8.36
CC(=Cc1csc(C)n1)C1CC2OC2(C)CCCC(C)C(O)C(C)C(=O)C(C)(C)C(O)CC(=O)O1 (stereo not shown) [Epothilone B, reference compound]	–	9.10	–
CCCS(=O)(=O)N1C2CCCC(C)C(O)C(C)C(=O)C(C)(C)C(O)CC(=O)OC(C(C)=Cc3csc(C)n3)CC21 [Example 25, [1S-[1R*,3R*(E),7R*,10S,11R*,12R*,16S*]]-17-N-n-Propylsulfonyl-7,11-dihydroxy-8,8,10,12-tetramethyl-3-[1-methyl-2-(2-methyl-4-thiazolyl)ethenyl]-4-oxa-17-azabicyclo[14.1.0]heptadecane-5,9-dione.]	–	–	7.03
CC(=Cc1csc(C)n1)C1CC2C(CCCC(C)C(O)C(C)C(=O)C(C)(C)C(O)CC(=O)O1)N2S(=O)(=O)c1cccs1 (stereo not drawn) [Example 26, [1S-[1R*,3R*(E),7R*,10S*,11R*,12R*,16S*]]-17-(2-thienyl)sulfonyl-7,11-dihydroxy-8,8,10,12-tetramethyl-3-[1-methyl-2-(2-methyl-4-thiazolyl)ethenyl]-4-oxa-17-azabicyclo[14.1.0]heptadecane-5,9-dione.]	–	–	7.52
